Measured values published in ChEMBL document CHEMBL5316327, “Design and Synthesis of Orally Active Quinolyl Pyrazinamides as Sigma 2 Receptor Ligands for the Treatment of Pancreatic Cancer” (J Med Chem, 2023).
Active and inactive are the calls of the source. No cut-off for these calls is given here.

Legend:
Panc02 [1] = experiment: cells; details: Mus musculus, Panc02, 72 h
PANC-1 = experiment: cells; details: Homo sapiens, PANC-1, 72 h
HCT-116 [2] = experiment: Induction of cell cycle arrest in human HCT-116 cells assessed as accumulation of cells in G0/G1 phase at 10 uM measured after 24 hrs by propidium iodide staining-based flow cytometric analysis (reference value: 43%); type: functional
MIA PaCa-2 [3] = experiment: Induction of cell cycle arrest in human MIA PaCa-2 cells assessed as accumulation of cells in G0/G1 phase at 5 uM measured after 24 hrs by propidium iodide staining-based flow cytometric analysis (reference value: 53%); type: functional
MIA PaCa-2 [4] = experiment: Induction of cell cycle arrest in human MIA PaCa-2 cells assessed as accumulation of cells in G2/M phase at 5 uM measured after 24 hrs by propidium iodide staining-based flow cytometric analysis (reference value: 16%); type: functional
MIA PaCa-2 [5] = experiment: Induction of apoptosis in human MIA PaCa-2 cells assessed as viable cells at 10.0 uM measured after 48 hrs by Annexin V-Alexa Fluor 488/propidium iodide staining based flow cytometry (reference value: 82.23%); type: functional; details: read-out: Activity
MIA PaCa-2 [6] = experiment: Synergistic ferroptosis activity in human MIA-PaCa-2 cells at upto 1 uM measured after 7 days in presence of chloroquine by crystal violet staining based analysis; type: functional, cell-based; details: time 7.0 day
[7] = Metabolic stability in human liver microsomes assessed as half life at 10 uM measured upto 60 mins in presence of NADPH by LC-MS/MS analysis; type: ADME, Microsome; details: liver microsomes
BXPC-3 = experiment: cells; details: Homo sapiens, BXPC-3, 72 h
[8] = Cytotoxicity against HPDE cells measured after 72 hrs by MTT assay; type: toxicity, cell-based; details: human
HCT-116 [9] = experiment: Antagonistic cytotoxicity against human HCT-116 cells at upto 1 uM measured after 6 days in presence of elesclomol by crystal violet staining based analysis; type: functional, cell-based; details: time 6.0 day
Panc02 [10] = experiment: Antitumor activity against mouse Panc02 cells xenografted in C57BL/6 mouse model assessed as delayed tumor growth at 30 mg/kg, po administered daily for 32 days in presence of copper sulfate by caliper method; type: functional, organism-based; details: time 32.0 day
MIA PaCa-2 [11] = experiment: Induction of apoptosis in human MIA PaCa-2 cells assessed as early apoptotic cells at 1.0 uM measured after 48 hrs by Annexin V-Alexa Fluor 488/propidium iodide staining based flow cytometry (reference value: 4.11%); type: functional
MIA PaCa-2 [12] = experiment: Induction of cell cycle arrest in human MIA PaCa-2 cells assessed as accumulation of cells in S phase at 10 uM measured after 24 hrs by propidium iodide staining-based flow cytometric analysis (reference value: 31%); type: functional
MIA PaCa-2 [13] = experiment: Synergistic cytotoxicity in human MIA PaCa-2 cells at upto 1 uM measured after 7 days in presence of doxorubicin by crystal violet staining based analysis; type: functional, cell-based; details: time 7.0 day
[14] = Cytotoxicity against HEK293 cells measured after 72 hrs by MTT assay; type: toxicity, cell-based; details: human
HCT-116 [15] = experiment: Induction of apoptosis in human HCT-116 cells assessed as necrotic cells at 1.0 uM measured after 48 hrs by Annexin V-Alexa Fluor 488/propidium iodide staining based flow cytometry (reference value: 9.06%); type: functional
HCT-116 [16] = experiment: Synergistic cytotoxicity against human HCT-116 cells at upto 1 uM measured after 6 days in presence of silver acetate by crystal violet staining based analysis; type: functional, cell-based; details: time 6.0 day
Histamine H2 receptor = Histamine H2 receptor (Homo sapiens, UniProt P25021); experiment: Binding affinity to histamine H2 receptor (unknown origin) assessed as inhibition constant
HCT-116 [17] = experiment: Induction of apoptosis in human HCT-116 cells assessed as viable cells at 5.0 uM measured after 48 hrs by Annexin V-Alexa Fluor 488/propidium iodide staining based flow cytometry (reference value: 79.69%); type: functional; details: read-out: Activity

Chain of Histamine H2 receptor (P25021 whole entry): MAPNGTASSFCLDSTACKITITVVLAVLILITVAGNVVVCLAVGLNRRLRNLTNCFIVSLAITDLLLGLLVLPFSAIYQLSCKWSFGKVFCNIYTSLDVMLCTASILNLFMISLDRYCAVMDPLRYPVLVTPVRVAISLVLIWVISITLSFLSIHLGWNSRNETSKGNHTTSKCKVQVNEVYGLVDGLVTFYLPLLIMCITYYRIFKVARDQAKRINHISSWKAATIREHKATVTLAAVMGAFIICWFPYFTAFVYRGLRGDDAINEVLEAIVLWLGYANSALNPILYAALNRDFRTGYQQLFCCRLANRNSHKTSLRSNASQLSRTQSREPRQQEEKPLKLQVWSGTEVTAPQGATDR

IC50 (Panc02 [1]): 3.7 µM
IC50 (PANC-1): 4 µM
half-life at 10 µM [7]: > 1 h
IC50 (BXPC-3): 5.8 µM
Ki (Histamine H2 receptor): 91.1 µM
Structure (SMILES): CCN(CC)CCCC(C)Nc1cnc(C(=O)Nc2ccc(Cl)c3cccnc23)cn1 (stereo not given)
Activity (HCT-116 [2]): 57%
Activity (MIA PaCa-2 [3]): 61%
Activity (MIA PaCa-2 [4]): 17%
viability at 10 µM (MIA PaCa-2 [5]): 6.27%
Activity (MIA PaCa-2 [6]): Active
IC50 at 72 h [8]: 0.3 µM
Activity (HCT-116 [9]): inactive
Activity (Panc02 [10]): Active
Activity (MIA PaCa-2 [11]): 11.44%
Activity (MIA PaCa-2 [12]): 14%
Activity (MIA PaCa-2 [13]): inactive
IC50 at 72 h [14]: 1.2 µM
Activity (HCT-116 [15]): 9.72%
Activity (HCT-116 [16]): inactive
viability at 5 µM (HCT-116 [17]): 64.1%
